Test results reported in US5393883A, “Antiviral combinations and compounds therefor” (Burroughs Wellcome Co., priority 1988, dated 1995).
Where two headings read alike, the source gives them in different places.

Tested on: HSV-2
Experiment: dye uptake method: prevention of HSV-2 cytopathic effect in Vero cells, acyclovir with ribonucleotide reductase inhibitor (Compound A)
Format: cell-based
Experimental: The ribonucleotide reductase inhibitors of the present invention were shown by use of the dye uptake method described by McLaren, Ellis and Hunter in Antivir. Res. 3, 223-234 (1983) to potentiate the in vitro antiviral effects of acyclovir. Vero cells (20,000 cells/well) were incubated in microtiter wells for 24 hours. Various concentrations of acyclovir and the ribonucleotide reductase inhibitors were added and the cells were infected with 30 infectious particles/well of HSV-1 or HSV-2. After 3 days incubation, the antiviral effects were assessed by determining the prevention of the cytopathic effects of the viruses. Examples of the synergistic antiherpes activity of 2-acetylpyridine (4,5-dihydro-5-thioxo-1,3,4-thiadiazol-2-yl)-hydrazone (Compound A) and acyclovir (ACV) are given below.

| IC50 Calculated (theoretical value for the additive combined effects of ACV and Compound A) (ACV alone) | IC50 (Human alphaherpesvirus 2, Vero, 72 h, read-out: IC50 Observed (concentration of ACV required to inhibit HSC2 replication by 50%)) | IC50 (Human alphaherpesvirus 2, Vero, read-out: IC50 of Compound A alone (inhibition of virus replication)) | Structure (SMILES) | inhibition at 0.4 µM (Human alphaherpesvirus 2, Vero, 0.4 μM Compound A alone, read-out: % inhibition of virus replication by Compound A alone) | inhibition at 0.9 µM (Human alphaherpesvirus 2, Vero, 0.9 μM Compound A alone, read-out: % inhibition of virus replication by Compound A alone) | inhibition at 1.3 µM (Human alphaherpesvirus 2, Vero, 1.3 μM Compound A alone, read-out: % inhibition of virus replication by Compound A alone) |
| --- | --- | --- | --- | --- | --- | --- |
| 5.7 µM | 5.77 µM |  | Nc1nc2c(ncn2COCCO)c(=O)[nH]1 [ACV, 9-(2-hydroxyethoxymethyl)guanine, reference compound] |  |  |  |
|  |  | 1.6 µM | CC(=NNc1n[nH]c(=S)s1)c1ccccn1 [Compound A, 2-acetylpyridine (4,5-dihydro-5-thioxo-1,3,4-thiadiazol-2-yl)-hydrazone] | 0% | 0% | 21% |
